Assay [1] has as its system PD-L1 mRNA. As to the kind of experiment: PD-L1 mRNA expression by RT-qPCR in PC-3 cells treated with chemicals. In kind it is cell-based, human. The conditions noted are these: 24 hours; for PD-L1 mRNA expression: RT-qPCR; for palbociclib-induced elevation of PD-L1: co-treatment with palbociclib. How it is done: FIGS. 1A-K. RB suppresses PD-L1 mRNA expression. (A) PC-3 cell were treated with indicated chemicals for 24 hours. Cells were harvested for RT-qPCR. All data were shown as mean values±SD (n=3). * P<0.05, ** P<0.01, *** P<0.001. (B) PC-3 cells were infected with lentivirus expressing control or CDK4 and CDK6-specific shRNAS. 72 hours after infection, cells were harvested for RT-qPCR. All data were shown as mean values±SD (n=3). *** P<0.001. (C-F) PC-3 cells were infected with lentivirus expressing control or RB1-specific shRNAs. 48 hours after infection, PD-L1 protein levels were determined by western blotting (C), RT-qPCR (D), FACS (E), and IFC (F). All data were shown as mean values±SD (n=3). * P<0.05, ** P<0.01, *** P<0.001. (G) PD-L1 mRNA levels were determined by RT-qPCR in SKO and DKO mouse prostate tumor cells. All data were shown as mean values±SD (n=3). * P<0.05, ** P<0.01, *** P<0.001. (H-J) SKO (H), DKO (I), and Rb^−/−PrE (J) cells were treated with palbociclib for 24 hours. Cells were harvested for RT-qPCR. All data were shown as mean values±SD (n=3). * P<0.05, ** P<0.01, *** P<0.001. (K) The putative copy-number calls for RB1 were determined using GISTC 2.0, and the mRNA expression for CD274(PD-L1) was measured by log 2(RPKM), here RPKM stands for Reads Per Kilobase of transcript per Million mapped reads. […] The nonparametric Mann-Whitney U test was used for the statistical test.
FIGS. 8A-D. (A) PC-3, MIA PaCa-2, H1299, SK-Hep1, and PTEN-CaP8 cells were treated with different doses of palbociclib for 24 hours. Cells were harvested for RT-qPCR. All data were shown as mean values±SD (n=3). * P<0.05, ** P<0.01. (B) PC-3 cell were treated with indicated chemicals for 24 hours. Cells were harvested for RT-qPCR. All data were shown as mean values±SD (n=3). Ns, not significant, * P<0.05, ** P<0.01. (C, D) PC-3 cells were infected with lentivirus expressing control shRNA or RB1-specific shRNA. 24 hours after puromycin selection, cells were treated with or without Helenalin (2 μM) for 24 hours. Cells were harvested for western blotting analysis (C) and RT-qPCR (D). All data were shown as mean values±SD (n=3). Ns, not significant, *** P<0.001.
FIGS. 13A-F. (A, B) PC-3 cells were treated with or without gamma irradiation (IR) (12 Gy). 24 hours post treatment, cells were treated with or without Helenalin (2 μM). 24 hours after treatment, cells were harvested for western blotting analysis (A) and RT-qPCR analysis (B). All data were shown as mean values±SD (n=3). “ns”=not significant, *** P<0.001. (C) PTEN-CaP8 cells were infected with lentivirus expression Tsin control or Tsin-RL S249D/T252D peptide. 72 hours post infection, cell were harvested for western blotting analysis. (D, E) PTEN-CaP8 cells were infected with lentivirus expression Tsin control or Tsin-RL S249D/T252D peptide. 72 hours post infection, cells were treated with or without gamma irradiation (12 Gy) for 48 hours. Cells were harvested for MTS assay (D) and RT-qPCR (E). All data were shown as mean values±SD (n=3). “ns”=not significant, ** P<0.01; *** P<0.001. (F) Schematic diagram depicting the treatment plan for mice bearing subcutaneous PTEN-CaP8 tumors.
Total RNA was isolated using TRIzol reagent (Thermo Fisher Scientific). The NanoDrop 2000 spectrophotometer (Thermo Fisher Scientific) was used to assess RNA yield and quality. RNA was reversely transcribed using Superscript reverse transcriptase (Thermo Fisher Scientific) following manufacturer's instructions. Quantitative real-time PCR was performed by mixing cDNA, gene-specific primers, and IQ SYRB Green Supermix and detected by iCycler QTX detection system (Bio-Rad). The 2-ΔCt method was used to quantitate fold changes by normalizing to GAPDH. Primers for RT-qPCR are provided Table 4.

For assay [2], the target named is T1, retinoblastoma protein RB (endogenous) (human, UniProt P06400 2-928).
T1 construct: Endogenous protein of cell lysates, phosphorylation state as in the cells; also called RB1; endogenous RB
T1 sequence (looked up): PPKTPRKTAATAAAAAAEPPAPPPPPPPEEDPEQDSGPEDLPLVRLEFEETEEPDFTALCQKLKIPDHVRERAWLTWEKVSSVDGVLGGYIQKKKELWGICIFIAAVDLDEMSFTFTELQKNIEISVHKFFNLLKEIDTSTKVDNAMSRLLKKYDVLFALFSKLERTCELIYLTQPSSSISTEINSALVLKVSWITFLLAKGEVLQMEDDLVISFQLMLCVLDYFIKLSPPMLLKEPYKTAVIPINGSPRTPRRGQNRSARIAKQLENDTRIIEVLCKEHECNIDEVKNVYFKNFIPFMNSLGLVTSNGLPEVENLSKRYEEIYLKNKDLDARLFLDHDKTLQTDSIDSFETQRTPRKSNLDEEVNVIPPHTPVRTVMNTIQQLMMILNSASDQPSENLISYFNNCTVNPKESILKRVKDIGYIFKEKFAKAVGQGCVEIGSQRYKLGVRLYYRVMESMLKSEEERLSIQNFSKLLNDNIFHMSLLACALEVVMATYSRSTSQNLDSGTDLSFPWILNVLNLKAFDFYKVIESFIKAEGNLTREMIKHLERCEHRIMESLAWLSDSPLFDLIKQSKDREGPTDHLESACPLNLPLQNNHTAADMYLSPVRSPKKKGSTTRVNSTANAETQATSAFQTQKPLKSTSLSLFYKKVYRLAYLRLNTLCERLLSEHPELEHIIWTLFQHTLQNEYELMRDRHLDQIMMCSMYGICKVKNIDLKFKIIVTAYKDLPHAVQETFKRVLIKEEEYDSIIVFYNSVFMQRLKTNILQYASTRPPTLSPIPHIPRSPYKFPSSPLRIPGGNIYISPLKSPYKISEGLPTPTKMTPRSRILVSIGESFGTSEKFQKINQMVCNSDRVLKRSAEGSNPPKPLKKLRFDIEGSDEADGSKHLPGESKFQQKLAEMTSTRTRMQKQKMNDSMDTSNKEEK
Nature of the assay: co-IP of endogenous proteins in PC-3 cells (FIGS. 2A and 18A).

Entries after “also recorded” stand apart in the source; their conditions may differ.

Consider `Cc1sc2c(c1C)C(c1ccc(Cl)cc1)=N[C@@H](CC(=O)OC(C)(C)C)c1nnc(C)n1-2` [JQ1], for which, in assay [1] (PC-3 cells), the “PD-L1 mRNA expression” value is “dramatic downregulation”. In the case of `CN1CC[C@H](c2c(O)cc(O)c3c(=O)cc(-c4ccccc4Cl)oc23)[C@H](O)C1` [flavopiridol], in assay [1] (PC-3 cells), the “PD-L1 mRNA expression” value was “dramatic downregulation” and the “palbociclib-induced elevation of PD-L1” value is reported as “completely abolished”. As for `C=C1C(=O)O[C@@H]2C[C@@H](C)[C@@H]3C=CC(=O)[C@@]3(C)[C@@H](O)[C@H]12` [helenalin], the “RB knockdown-induced PD-L1 upregulation” value in assay [1] (PC-3 cells with RB1 shRNA, Helenalin 2 μM) is “completely blocked; also recorded: inhibited”. Besides, the “gamma irradiation-induced PD-L1 expression” value in assay [1] (PC-3 cells, 12 Gy, Helenalin 2 μM) is recorded as “abrogated”. For the same molecule, in assay [1] (PC-3 cells), the “PD-L1 mRNA expression” value is reported as “decreased” and the “palbociclib-induced elevation of PD-L1” value was “completely abolished”. Regarding `CC[C@H](CO)Nc1nc(NCc2ccccc2)c2ncn(C(C)C)c2n1` [roscovitine], in assay [1] (PC-3 cells), the “PD-L1 mRNA expression” value is listed as “dramatic downregulation”.

B1: RelB (other, human, UniProt Q01201 1-579, looked up)
chain: MLRSGPASGPSVPTGRAMPSRRVARPPAAPELGALGSPDLSSLSLAVSRSTDELEIIDEYIKENGFGLDGGQPGPGEGLPRLVSRGAASLSTVTLGPVAPPATPPPWGCPLGRLVSPAPGPGPQPHLVITEQPKQRGMRFRYECEGRSAGSILGESSTEASKTLPAIELRDCGGLREVEVTACLVWKDWPHRVHPHSLVGKDCTDGICRVRLRPHVSPRHSFNNLGIQCVRKKEIEAAIERKIQLGIDPYNAGSLKNHQEVDMNVVRICFQASYRDQQGQMRRMDPVLSEPVYDKKSTNTSELRICRINKESGPCTGGEELYLLCDKVQKEDISVVFSRASWEGRADFSQADVHRQIAIVFKTPPYEDLEIVEPVTVNVFLQRLTDGVCSEPLPFTYLPRDHDSYGVDKKRKRGMPDVLGELNSSDPHGIESKRRKKKPAILDHFLPNHGSGPFLPPSALLPDPDFFSGTVSLPGLEPPGGPDLLDDGFAYDPTAPTLFTMLDLLPPAPPHASAVVCSGGAGAVVGETPGPEPLTLDSYQAPGPGDGGTASLVGSNMFPNHYREAAFGGGLLSPGPEAT
B1: in assay [2], the binding result was “no binding”.

B2: p52 (other, human, UniProt Q00653 1-454, looked up)
chain: MESCYNPGLDGIIEYDDFKLNSSIVEPKEPAPETADGPYLVIVEQPKQRGFRFRYGCEGPSHGGLPGASSEKGRKTYPTVKICNYEGPAKIEVDLVTHSDPPRAHAHSLVGKQCSELGICAVSVGPKDMTAQFNNLGVLHVTKKNMMGTMIQKLQRQRLRSRPQGLTEAEQRELEQEAKELKKVMDLSIVRLRFSAFLRASDGSFSLPLKPVISQPIHDSKSPGASNLKISRMDKTAGSVRGGDEVYLLCDKVQKDDIEVRFYEDDENGWQAFGDFSPTDVHKQYAIVFRTPPYHKMKIERPVTVFLQLKRKRGGDVSDSKQFTYYPLVEDKEEVQRKRRKALPTFSQPFGGGSHMGGGSGGAAGGYGGAGGGGSLGFFPSSLAYSPYQSGAGPMGCYPGGGGGAQMAATVPSRDSGEEAAEPSAPSRTPQCEPQAPEMLQRAREYNARLFGLA
As to B2, the binding result in assay [2] is recorded as “no binding”.

B3: c-Rel (other, human, UniProt Q04864 2-619, looked up)
chain: ASGAYNPYIEIIEQPRQRGMRFRYKCEGRSAGSIPGEHSTDNNRTYPSIQIMNYYGKGKVRITLVTKNDPYKPHPHDLVGKDCRDGYYEAEFGQERRPLFFQNLGIRCVKKKEVKEAIITRIKAGINPFNVPEKQLNDIEDCDLNVVRLCFQVFLPDEHGNLTTALPPVVSNPIYDNRAPNTAELRICRVNKNCGSVRGGDEIFLLCDKVQKDDIEVRFVLNDWEAKGIFSQADVHRQVAIVFKTPPYCKAITEPVTVKMQLRRPSDQEVSESMDFRYLPDEKDTYGNKAKKQKTTLLFQKLCQDHVETGFRHVDQDGLELLTSGDPPTLASQSAGITVNFPERPRPGLLGSIGEGRYFKKEPNLFSHDAVVREMPTGVSSQAESYYPSPGPISSGLSHHASMAPLPSSSWSSVAHPTPRSGNTNPLSSFSTRTLPSNSQGIPPFLRIPVGNDLNASNACIYNNADDIVGMEASSMPSADLYGISDPNMLSNCSVNMMTTSSDSMGETDNPRLLSMNLENPSCNSVLDPRDLRQLHQMSSSSMSAGANSNTTVFVSQSDAFEGSDFSCADNSMINESGPSNSTNPNSHGFVQDSQYSGIGSMQNEQLSDSFPYEFFQV
Turning to B3, in assay [2], the binding result is on record as “no binding”.

For the origin of these results see patent publication US20210401931A1, “METHODS AND MATERIALS FOR TREATING CANCER” (Mayo Foundation for Medical Education and Research, priority 2018, published 2021).
